Counter-ions that a name gives are not always drawn.
Legend:
[1] = system: winter barley; test: Example 16 field trial, post-emergence, 2- to 3-leaf stage: crop damage; format: in vivo, Hordeum vulgare; conditions: in vivo
Description: (§1) The herbicidal efficacy of the active compounds or active compound mixtures was scored visually using the treated plots in comparison to untreated control plots. The damage and development of all above-ground parts of the plants were recorded. Scoring was carried out using a percentage scale (100% effect=all plants killed; 50% effect=50% of the plants and the green parts of the plants killed; 0% effect=no noticeable effect=like control plot. The scores of in each case 4 plots were averaged.
(§2) If the observed activity values already exceed the formal sum of the values for the trials with the individual applications, they also exceed the expected value according to Colby which is calculated using the following formula and which is likewise considered to be an indication of synergism (cf. S. R. Colby; in Weeds 15 (1967) p. 20 to 22):
(§3) Crop plants were grown outdoors on plots under natural outdoor conditions, and seeds or rhizome pieces of typical harmful plants were laid out or the natural weed growth was utilized. […] After the application, for example 2, 4, 6 and 8 weeks after the application, the effect of the preparations was scored visually by comparison with untreated controls (cf. scoring in Section 1). […]

[2] = system: winter wheat; test: as above; format: in vivo, Triticum aestivum; conditions: in vivo
Description: as §1, §2, §3

[3] = system: Galium aparine; test: Example 16 field trial, post-emergence, 2- to 3-leaf stage: herbicidal effect; format: in vivo; conditions: 180 g of ai/ha; 69 days after application
Description: as §1, §2
(§4) Crop plants were grown outdoors on plots under natural outdoor conditions, and seeds or rhizome pieces of typical harmful plants were laid out or the natural weed growth was utilized. Treatment with the compositions according to the invention was carried out after the harmful plants had emerged and the crop plants were, generally, at the 2- to 4-leaf stage; in some cases (as stated), application of individual active compounds or active compound combinations was carried out pre-emergence (cf. Section 1) or post-emergence (cf. Section 2) or as a sequential treatment partly pre-emergence and/or post-emergence. After the application, for example 2, 4, 6 and 8 weeks after the application, the effect of the preparations was scored visually by comparison with untreated controls (cf. scoring in Section 1). In the field trial as well, the compositions according to the invention have synergistic herbicidal activity against a broad spectrum of economically important weed grasses and broad-leaved weeds. […] Moreover, the effects in essential phases of the scoring period were above the expected values according to Colby, also indicating synergism. In contrast, the crop plants were, as a consequence of the treatments with the herbicidal compositions, damaged only to a small degree, if at all.

[4] = system: Myosotis arvensis; test: as above; format: in vivo; conditions: 180 g of ai/ha; 69 days after application
Description: as §1, §2, §4

[5] = system: Matricaria chamomilla; test: as above; format: in vivo; conditions: 180 g of ai/ha; 69 days after application
Description: as §1, §2, §4

[6] = system: Lamium ssp.; test: as above; format: in vivo; conditions: 180 g of ai/ha; 69 days after application
Description: as §1, §2, §4

[7] = system: Anthemis arvensis; test: as above; format: in vivo; conditions: 180 g of ai/ha; 69 days after application
Description: as §1, §2, §4

[8] = system: Viola arvensis; test: as above; format: in vivo; conditions: 180 g of ai/ha; 69 days after application
Description: as §1, §2, §4

[9] = system: Papaver rhoeas; test: as above; format: in vivo; conditions: 180 g of ai/ha; 69 days after application
Description: as §1, §2, §4

[10] = system: Galium aparine; test: Example 10 pre-emergence application, fall: herbicidal effect; format: in vivo; conditions: 180 g of ai/ha; 169 days after application
Source text: (§5) Seeds or rhizome pieces of monocotyledonous and dicotyledonous weed plants are placed in sandy loam soil in pots and covered with soil. The compositions, formulated in the form of concentrated aqueous solutions, wettable powders or emulsion concentrates, are then applied to the surface of the soil cover as aqueous solution, suspension or emulsion at an application rate of 600 to 800 l of water/ha (converted), in various dosages. After the treatment, the pots are placed in a greenhouse and kept under good growth conditions for the weeds. After the test plants have emerged, the damage to the plants or the negative effects on the emergence is scored visually after a test period of 3 to 4 weeks by comparison with untreated controls. As shown by the test results, the compositions according to the invention have good herbicidal pre-emergence activity against a broad spectrum of weed grasses and broad-leaved weeds.
as §1, §2, §4

[11] = system: winter wheat; test: Example 10 pre-emergence application, fall: crop damage; format: in vivo, Triticum aestivum; conditions: winter wheat (Triticum aestivum), in vivo, 169 days
Source text: as §5, §1, §2, §4

[12] = system: Ipomoea hederacea; test: Example 17 field trial, pre-emergence: herbicidal effect; format: in vivo; conditions: 16 days after application
Source text: as §5, §1, §2, §4

[13] = system: Setaria faberi; test: as above; format: in vivo; conditions: 16 days after application
Source text: as §5, §1, §2, §4

[14] = system: Zea mays (corn); test: Example 17 field trial, pre-emergence: crop damage; format: in vivo; conditions: in vivo
Source text: as §5
The herbicidal efficacy of the active compounds or active compound mixtures was scored visually using the treated plots in comparison to untreated control plots. The damage and development of all above-ground parts of the plants were recorded. […]
as §2, §3

[15] = system: Elusine indica; test: Example 18 field trial, 3-leaf stage: herbicidal effect; format: in vivo; conditions: 31 days after application
Description: as §1, §2
as §4, with “In contrast, the crop plants were, as a consequence of the treatments with the herbicidal compositions, damaged only to a small degree, if at all.” left out

[16] = system: corn which is glufosinate-ammonium-resistant; test: Example 18 field trial, 3-leaf stage: crop damage; format: in vivo, Corn (LL); conditions: 31 days after application
Description: The damage and development of all above-ground parts of the plants were recorded.
Crop plants were grown outdoors on plots under natural outdoor conditions, and seeds or rhizome pieces of typical harmful plants were laid out or the natural weed growth was utilized.

CC(C)N(C(=O)COc1nnc(C(F)(F)F)s1)c1ccc(F)cc1 [(B1.2.1), fluthiamide, reference compound]
herbicidal effect (%), HORVW (crop) [1]: 0%
herbicidal effect (%), TRZAW (crop) [2]: 0%
herbicidal effect (%), GALAP [3]: 68%
herbicidal effect (%), MYOAR [4]: 16%
herbicidal effect (%), MATCH [5]: 61%
herbicidal effect (%), LAMSS [6]: 87%
herbicidal effect (%), ANTAR [7]: 25%
herbicidal effect (%), VIOAR [8]: 20%
herbicidal effect (%), PAPRH [9]: 12%
herbicidal effect, GALAP [10]: 45%
damage, TRZAW [11]: 2%

CS(=O)(=O)c1cc(C(F)(F)F)ccc1C(=O)c1cnoc1C1CC1 [(B3.4.5), isoxaflutole, reference compound]
herbicidal effect, IPOHE ([12]; 105 g of ai/ha): 87%
herbicidal effect, IPOHE ([12]; 210 g of ai/ha): 85%
herbicidal effect, SETFA ([13]; 105 g of ai/ha): 90%
herbicidal effect, SETFA ([13]; 210 g of ai/ha): 93%
damage, ZEAMA [14]: 0%

CP(=O)(O)CCC(N)C(=O)O (centres unmarked) [(B4.1.2), glufosinate monoammonium salt]
herbicidal effect, ELEIN ([15]; 300 g of ai/ha): 55%
herbicidal effect, ELEIN ([15]; 600 g of ai/ha): 78%
damage, Corn (LL) ([16]; 300 g of ai/ha): 0%
damage, Corn (LL) ([16]; 600 g of ai/ha): 0%
